Calls of active or inactive are those of the source. No rule for the calls is given here.
System: GENE-TOX genotoxicity assays, various organisms and cells
Assay: GENE-TOX mutagenicity studies
Settings: for call: Assay Type: In vivo carcinogenicity studies
[1] = Species/Cell Type: Fischer rat embryo (RLV/1706) cells, Assay Type: Cell transformation, viral enhanced, Assay Code: CTR+, Evaluation Type: Evaluation A (Pre-1980)
[2] = Species/Cell Type: Neurospora crassa, Assay Type: Reverse gene mutation, Assay Code: NER+, Evaluation Type: Evaluation A (Pre-1980)
[3] = Species/Cell Type: Saccharomyces cerevisiae, Assay Type: Mitotic recombination or gene conversion, Assay Code: YEC+, Evaluation Type: Evaluation A (Pre-1980)
[4] = Species/Cell Type: Saccharomyces cerevisiae, Assay Type: Mitotic recombination or gene conversion, Assay Code: YEH+, Evaluation Type: Evaluation A (Pre-1980)
[5] = Species/Cell Type: Saccharomyces cerevisiae, Assay Type: Reverse gene mutation, Assay Code: YER+, Evaluation Type: Evaluation A (Pre-1980)
[6] = Species/Cell Type: Drosophila melanogaster, Assay Type: Sex-linked recessive lethal gene mutation, Assay Code: SRL+, Evaluation Type: Evaluation A (Pre-1980)
[7] = Species/Cell Type: Bacillus subtilis (H17 vs M45), Assay Type: Rec-assay, spot test, DNA effects (bacterial DNA repair), Assay Code: REWT, Evaluation Type: Evaluation A (Pre-1980)
[8] = Species/Cell Type: Salmonella typhimurium (one or more of the five standard strains: TA98, TA100, TA1535, TA1537, and TA1538), Assay Type: Histidine reverse gene mutation, Ames assay, Assay Code: SAL-, Evaluation Type: Evaluation A (Pre-1980)

Nc1nc(/C=C/c2ccc([N+](=O)[O-])o2)no1
mutagenic call [1]: active; positive
mutagenic call (Species/Cell Type: Neurospora crassa, Assay Type: Forward gene mutation, Assay Code: NEF+, Evaluation Type: Evaluation A (Pre-1980)): active; positive
mutagenic call [2]: active; positive
mutagenic call [3]: active; positive
mutagenic call [4]: active; positive
mutagenic call [5]: active; positive

O=S1(=O)CC=CC1
call (Species/Cell Type: Nonhuman, Assay Code: CCG-, Evaluation Type: Evaluation A (Pre-1980)): inactive; negative

O=C1c2c(O)cccc2Cc2cccc(O)c21
mutagenic call (Species/Cell Type: Mammalian polychromatic erythrocytes, Assay Type: Micronucleus test, chromosome aberrations, Assay Code: MNT-, Evaluation Type: Evaluation B (Post-1980)): inactive; negative
mutagenic call (Species/Cell Type: Saccharomyces cerevisiae, Assay Type: Mitotic recombination or gene conversion, Assay Code: YECT, Evaluation Type: Evaluation A (Pre-1980)): no conclusion

CCOS(=O)(=O)CC
mutagenic call (Species/Cell Type: Arabidopsis species, Assay Type: Gene mutation, Assay Code: ARM+, Evaluation Type: Evaluation A (Pre-1980)): active; positive
mutagenic call (Species/Cell Type: Hordeum vulgare (barley), Assay Type: Chromosome aberrations, Assay Code: HOC-, Evaluation Type: Evaluation A (Pre-1980)): inactive; negative
mutagenic call (Species/Cell Type: Hordeum vulgare (barley), Assay Type: Gene mutation, Assay Code: HOM+D, Dose Response: With dose response, Evaluation Type: Evaluation A (Pre-1980)): active; positive

O=NN1CCNC1=O
mutagenic call (Species/Cell Type: Arabidopsis species, Assay Type: Gene mutation, Assay Code: ARM+D, Dose Response: With dose response, Evaluation Type: Evaluation A (Pre-1980)): active; positive
mutagenic call (Species/Cell Type: Saccharomyces cerevisiae, Assay Type: Forward gene mutation, Assay Code: YEF+, Evaluation Type: Evaluation A (Pre-1980)): active; positive
mutagenic call [3]: active; positive
mutagenic call [4]: active; positive
mutagenic call [5]: active; positive
mutagenic call (Species/Cell Type: Salmonella typhimurium (one or more of the five standard strains: TA98, TA100, TA1535, TA1537, and TA1538), Assay Type: Histidine reverse gene mutation, Ames assay, Assay Code: SAL+, Evaluation Type: Evaluation A (Pre-1980)): active; positive

CN(C)N=Nc1ccc(Cl)cc1
mutagenic call [6]: active; positive
mutagenic call (Species/Cell Type: Mammalian polychromatic erythrocytes, Assay Type: Micronucleus test, chromosome aberrations, Assay Code: MNT+, Evaluation Type: Evaluation A (Pre-1980)): active; positive
mutagenic call [3]: active; positive

S=C(NC1CCCCC1)NC1CCCCC1
mutagenic call [1]: active; positive

Cc1cc(C)c(N=Nc2c(O)c(S(=O)(=O)O)cc3cc(S(=O)(=O)O)ccc23)cc1C
mutagenic call [7]: no conclusion
mutagenic call (Species/Cell Type: Bacillus subtilis (H17 vs M45T), Assay Type: Rec-assay, spot test, DNA effects (bacterial DNA repair), Assay Code: REXT, Evaluation Type: Evaluation A (Pre-1980)): no conclusion
call (Species/Cell Type: Nonhuman, Assay Code: CCG+, Evaluation Type: Evaluation A (Pre-1980)): active; positive
mutagenic call (Species/Cell Type: Saccharomyces cerevisiae, Assay Type: Mitotic recombination or gene conversion, Assay Code: YEC-, Evaluation Type: Evaluation A (Pre-1980)): inactive; negative
mutagenic call [8]: inactive; negative

CNC(=O)Oc1ccccc1Cl
mutagenic call [7]: no conclusion
mutagenic call (Species/Cell Type: Bacillus subtilis (H17 vs M45T), Assay Type: Rec-assay, spot test, DNA effects (bacterial DNA repair), Assay Code: REX-, Evaluation Type: Evaluation A (Pre-1980)): inactive; negative
mutagenic call (Species/Cell Type: Escherichia coli WP2, Assay Type: Tryptophan reverse gene mutation, Assay Code: WP2-, Evaluation Type: Evaluation A (Pre-1980)): inactive; negative

CCOP(=S)(NC(C)CC)Oc1cc(C)ccc1[N+](=O)[O-] (stereo not given)
mutagenic call (Species/Cell Type: Salmonella typhimurium, Assay Type: Forward and reverse gene mutation, host-mediated assay, Assay Code: HMA-, Evaluation Type: Evaluation A (Pre-1980)): inactive; negative

CCN(CCCl)CCCNc1ccnc2ccc(OC)cc12
mutagenic call [2]: active; positive

CCCOC(=O)c1ccc(O)cc1
mutagenic call [8]: inactive; negative

CC1=C(/C=C/C(C)=C/C=C/C(C)=C/C=O)C(C)(C)CCC1
mutagenic call (Species/Cell Type: Nonhuman, Assay Type: Sister-chromatid exchange (SCE) in vitro, Assay Code: SC2T, Evaluation Type: Evaluation B (Post-1980)): no conclusion

O=NN(CCCl)C(=O)NC(NC(=O)N(CCCl)N=O)(c1ccccc1)c1ccccc1
mutagenic call [6]: active; positive

Reference: PubChem BioAssay AID1259408 (Genetic Toxicology Data Bank (GENE-TOX), 2018)
